Experimental data from article PMC6409996, “Pharmacodynamics and Pharmacokinetics of a New Type of Compound Lansoprazole Capsule in Gastric Ulcer Rats and Beagle Dogs: Importance of Adjusting Oxidative Stress and Inflammation” (Pharmaceutics, 2019).

Key:
[1] = test system: glacial acetic-acid-induced gastric ulcer; assay: Macroscopic gastric ulcer assay in the glacial acetic-acid-induced gastric ulcer model; type: in vivo, rat
Procedure: The gastric ulcer index (UI) was the total area of ulcer. The gastroprotection (%) was calculated and used for macroscopic gastric ulcer assay.

[2] = test system: glacial acetic-acid-induced gastric ulcer; assay: Histopathological observation (H&E) of gastric mucosa, glacial acetic-acid-induced gastric ulcer; type: in vivo, rat; settings: treatment with LSZ compared to the model group
Procedure: Cross-sections with a thickness of 4 µm were then papered for hematoxylin and eosin (H&E) staining. All specimens were assessed under a light microscopy.

VEGF [3] = assay: Immunohistochemistry evaluation of gastric tissue for VEGF; type: in vivo, rat; settings: the LSZ group, p < 0.01
Procedure: (§1) Gastric tissues were post fixed in 4% paraformaldehyde overnight at 4 °C before routine paraffin sections (4 μm) were prepared for immunohistochemical staining. Paraffin-embedded slices of tissues were incubated overnight at 4 °C with primary rabbit anti-VEGF and anti-COX-2 antibody (1:200, Thermo). After rinsing, sections were incubated in biotinylated goat anti-rabbit IgG (1:200, Maixin) at 37 °C for 30 min and were subsequently incubated in streptavidin-peroxidase conjugate (1:200, Maixin) at 37 °C for 30 min. The sections were developed with 3,3′-diaminobenzidine (DAB) in a chromogen solution and counter-stained with hematoxylin. Images were obtained using an Olympus BX-61microscope (Tokyo, Japan).

COX-2 [4] = assay: Immunohistochemistry evaluation of gastric tissue for COX-2; type: in vivo, rat; settings: the LSZ group, p < 0.01
Procedure: as §1

VEGF [5] = assay: Western blotting determination of gastric tissue for VEGF; type: in vivo, rat; settings: LSZ versus model group, p < 0.01
Procedure: (§2) The homogenate was centrifuged at a force of 12,000 g for 30 min at 4 °C and protein qualification was carried out using a BCA kit. The total protein extract (25 μg per lane) was separated on SDS-polyacrylamide gels and transferred onto PVDF membranes. Nonspecific binding sites on the membrane were blocked by PBS containing 0.1% Tween-20 with 5% bovine serum albumin, which was followed by incubation with rabbit polyclonal primary antibodies against VEGF and COX-2 and β-actin overnight at 4 °C. Immunoreactive bands were visualized using the enhanced chemiluminescent kit. Bands were measured using the Quality One analysis software and the density of each band was normalized to β-actin.

COX-2 [6] = assay: Western blotting determination of gastric tissue for COX-2; type: in vivo, rat; settings: LSZ versus model group, p < 0.01
Procedure: as §2

[7] = Stability of lansoprazole in dog plasma (method validation); type: in vitro ADME; settings: n = 3
Excerpt: The method was fully validated in accordance with the US Food and Drug Administration (FDA) guidelines. Specificity, linearity, LLOQ, precision, accuracy, recovery, matrix effect and stability were all experimentally investigated.

[8] = capsules containing enteric-coated granules; cited from earlier work
SOD = assay: Measurement of SOD level in gastric ulcer rats; settings: 2.7 mg/kg, seven consecutive days, mean ± SD, n = 6
H^+-K^+-ATP enzyme = H^+-K^+-ATP enzyme (Rattus norvegicus, UniProt P09626); assay: Measurement of H+-K+-ATP enzyme activity in gastric ulcer rats; settings: 2.7 mg/kg, seven consecutive days, mean ± SD, n = 6
H^+-K^+-ATP enzyme, sequence (P09626 whole entry): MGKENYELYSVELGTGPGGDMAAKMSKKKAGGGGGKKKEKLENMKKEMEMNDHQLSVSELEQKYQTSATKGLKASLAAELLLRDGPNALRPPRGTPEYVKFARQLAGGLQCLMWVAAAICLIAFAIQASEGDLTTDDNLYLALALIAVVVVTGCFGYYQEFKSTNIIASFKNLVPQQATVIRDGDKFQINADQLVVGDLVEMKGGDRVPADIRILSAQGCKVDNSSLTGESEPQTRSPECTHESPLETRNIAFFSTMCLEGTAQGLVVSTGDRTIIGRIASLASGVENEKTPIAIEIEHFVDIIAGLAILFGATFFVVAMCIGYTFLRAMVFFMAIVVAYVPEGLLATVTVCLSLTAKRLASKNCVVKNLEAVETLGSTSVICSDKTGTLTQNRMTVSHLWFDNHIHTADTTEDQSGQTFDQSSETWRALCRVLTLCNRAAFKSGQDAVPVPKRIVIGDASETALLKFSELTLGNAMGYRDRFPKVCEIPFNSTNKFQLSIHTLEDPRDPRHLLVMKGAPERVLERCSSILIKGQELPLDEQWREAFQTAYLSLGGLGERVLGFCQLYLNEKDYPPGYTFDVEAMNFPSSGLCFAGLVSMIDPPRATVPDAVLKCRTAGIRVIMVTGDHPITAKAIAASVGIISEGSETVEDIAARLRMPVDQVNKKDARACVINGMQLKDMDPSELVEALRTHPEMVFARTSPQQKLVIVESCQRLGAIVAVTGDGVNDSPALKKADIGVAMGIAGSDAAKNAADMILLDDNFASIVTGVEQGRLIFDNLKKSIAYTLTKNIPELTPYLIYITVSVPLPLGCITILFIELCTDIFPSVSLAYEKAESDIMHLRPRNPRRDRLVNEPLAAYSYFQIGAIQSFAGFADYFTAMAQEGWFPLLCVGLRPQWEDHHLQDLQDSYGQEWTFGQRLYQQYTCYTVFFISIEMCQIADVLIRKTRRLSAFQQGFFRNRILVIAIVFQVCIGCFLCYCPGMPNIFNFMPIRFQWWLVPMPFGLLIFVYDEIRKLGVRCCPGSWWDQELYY
H^+-K^+-ATP enzyme, sequence (P18598 whole entry partner): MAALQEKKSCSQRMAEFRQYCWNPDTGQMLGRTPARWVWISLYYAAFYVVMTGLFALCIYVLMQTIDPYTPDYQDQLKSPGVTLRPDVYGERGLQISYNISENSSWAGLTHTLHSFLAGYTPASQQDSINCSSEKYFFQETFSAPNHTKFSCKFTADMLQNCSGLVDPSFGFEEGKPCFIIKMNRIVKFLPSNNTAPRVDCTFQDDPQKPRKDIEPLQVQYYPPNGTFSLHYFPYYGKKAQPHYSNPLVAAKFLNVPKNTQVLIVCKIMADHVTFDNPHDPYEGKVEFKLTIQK

MDA = assay: Measurement of MDA (lipid peroxidation, TBARS) in gastric ulcer rats; settings: 2.7 mg/kg, seven consecutive days, mean ± SD, n = 6
[9] = nominal concentration 10 ng·mL^−1
[10] = nominal concentration 125 ng·mL^−1
[11] = nominal concentration 2000 ng·mL^−1

Cc1c(OCC(F)(F)F)ccnc1C[S+]([O-])c1nc2ccccc2[nH]1 (stereo not drawn) [LSZ, Lansoprazole]
Gastroprotection (%) ([1]; rats, intragastric, 2.7 mg/kg, seven consecutive days): 29.8% | UI ([1]; rats, intragastric, 2.7 mg/kg, seven consecutive days, UI = total area of ulcer, mean ± SD, n = 6): 28.30 ± 7.29 | Macroscopic gastric lesions ([1]; treatment with LSZ compared to the model group): significantly reduced | Histological evaluation of gastric mucosa (submucosal edema, epithelial cell loss) [2]: protective effect on gastric mucosa | Expression of VEGF (immunohistochemistry) (VEGF [3]): increased expression | Expression of COX-2 (immunohistochemistry) (COX-2 [4]): increased expression | Expression of VEGF protein (Western blot) (VEGF [5]): significantly increase | Expression of COX-2 protein (Western blot) (COX-2 [6]): significantly increase | Stability in dog plasma, 3 Freeze-Thaw Cycles [7, 9]: 9.64 | Stability in dog plasma, 45 Days, −20 °C [7, 9]: 9.11 | Stability in dog plasma, 10 h, 4 °C [7, 9]: 9.35 | Stability in dog plasma, 24 h, Room Temperature [7, 9]: 10.00 | Stability in dog plasma, 3 Freeze-Thaw Cycles [7, 10]: 119.79 | Stability in dog plasma, 45 Days, −20 °C [7, 10]: 123.82 | Stability in dog plasma, 10 h, 4 °C [7, 10]: 124.51 | Stability in dog plasma, 24 h, Room Temperature [7, 10]: 132.80 | Stability in dog plasma, 3 Freeze-Thaw Cycles [7, 11]: 2128.46 | Stability in dog plasma, 45 Days, −20 °C [7, 11]: 1853.17 | Stability in dog plasma, 10 h, 4 °C [7, 11]: 2088.22 | Stability in dog plasma, 24 h, Room Temperature [7, 11]: 2024.38 | Time of peak concentration after oral administration [8]: ≤ 1 ± 2 h | SOD (SOD): 170.12 ± 13.19 μmol*g^−1 Pro | H^+-K^+-ATP enzyme activity (H^+-K^+-ATP enzyme): 7.91 ± 0.76 mmol/g/h | MDA (MDA): 75.32 ± 10.77 μmol*g^−1 Pro
